Reference: PMC8537180, “Discovery of a Kojibiose Hydrolase by Analysis of Specificity-Determining Correlated Positions in Glycoside Hydrolase Family 65” (Molecules, 2021)
Like-named read-outs stand apart in the source and are kept apart here.

Columns and labels:
CaGP = biological target: T1, CaGP (Caldithrix abyssi, UniProt H1XSN4); assay: phosphomolybdate assay and HPAEC-PAD, synthesis direction; format: biochemical; settings: 50 mM MOPS pH 7.0
T1 construct: gene Calab_2975; codon-optimized gene in pET21a, C-terminal His6-tag, expressed in E. coli BL21(DE3) agp-, Ni-NTA purified; GH65 subgroup 22

TbGP = biological target: T2, TbGP (Thermobispora bispora, UniProt D6Y6U5); assay: as above; format: biochemical; settings: 50 mM MOPS pH 7.0, trehalose formed
T2 construct: gene Tbis_2887; codon-optimized gene in pET21a, C-terminal His6-tag, expressed in E. coli BL21(DE3) agp-, Ni-NTA purified; GH65 subgroup 1

MiGP = biological target: T3, MiGP (Mageeibacillus indolicus, UniProt D3R1R5); assay: as above; format: biochemical; settings: acceptor, minor activity; donor 10 mM βGlc1P; 50 mM MOPS pH 7.0
T3 construct: gene HMPREF0868_0806; codon-optimized gene in pET21a, C-terminal His6-tag, expressed in E. coli BL21(DE3) agp-, Ni-NTA purified; GH65 subgroup 6
T3 sequence (D3R1R5 1-712): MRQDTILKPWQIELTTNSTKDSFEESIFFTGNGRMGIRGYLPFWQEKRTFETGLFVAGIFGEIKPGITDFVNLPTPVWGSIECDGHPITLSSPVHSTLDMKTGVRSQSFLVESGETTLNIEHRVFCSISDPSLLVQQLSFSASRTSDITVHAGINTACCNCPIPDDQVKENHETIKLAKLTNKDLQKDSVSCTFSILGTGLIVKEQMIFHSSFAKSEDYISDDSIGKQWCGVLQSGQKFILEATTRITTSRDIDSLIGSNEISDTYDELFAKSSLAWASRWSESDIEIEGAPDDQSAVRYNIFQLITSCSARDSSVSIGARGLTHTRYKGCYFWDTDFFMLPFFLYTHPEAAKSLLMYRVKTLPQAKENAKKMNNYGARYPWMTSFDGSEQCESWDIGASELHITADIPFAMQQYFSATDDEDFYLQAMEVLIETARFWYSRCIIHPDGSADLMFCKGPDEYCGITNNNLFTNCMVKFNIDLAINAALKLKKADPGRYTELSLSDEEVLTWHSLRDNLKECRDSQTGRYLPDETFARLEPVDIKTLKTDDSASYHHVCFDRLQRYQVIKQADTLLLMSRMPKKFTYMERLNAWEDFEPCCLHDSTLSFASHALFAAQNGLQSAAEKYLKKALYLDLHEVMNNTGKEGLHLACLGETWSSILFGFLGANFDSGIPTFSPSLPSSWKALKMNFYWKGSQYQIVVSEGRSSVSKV

HoGP = biological target: T4, HoGP (Halothermothrix orenii, UniProt B8D049); settings: 50 mM MOPS pH 7.0
T4 construct: gene Hore_00420

ChGP = biological target: T5, ChGP (Caldicellulosiruptor hydrothermalis, UniProt E4Q9G1); assay: phosphomolybdate assay and HPAEC-PAD, synthesis direction; format: biochemical; settings: acceptor; donor βGlc1P; 50 mM MOPS pH 7.0
T5 construct: gene Calhy_0070; codon-optimized gene in pET21a, C-terminal His6-tag, expressed in E. coli BL21(DE3) agp-, Ni-NTA purified; GH65 subgroup 4
T5 sequence (E4Q9G1 entry or part of it): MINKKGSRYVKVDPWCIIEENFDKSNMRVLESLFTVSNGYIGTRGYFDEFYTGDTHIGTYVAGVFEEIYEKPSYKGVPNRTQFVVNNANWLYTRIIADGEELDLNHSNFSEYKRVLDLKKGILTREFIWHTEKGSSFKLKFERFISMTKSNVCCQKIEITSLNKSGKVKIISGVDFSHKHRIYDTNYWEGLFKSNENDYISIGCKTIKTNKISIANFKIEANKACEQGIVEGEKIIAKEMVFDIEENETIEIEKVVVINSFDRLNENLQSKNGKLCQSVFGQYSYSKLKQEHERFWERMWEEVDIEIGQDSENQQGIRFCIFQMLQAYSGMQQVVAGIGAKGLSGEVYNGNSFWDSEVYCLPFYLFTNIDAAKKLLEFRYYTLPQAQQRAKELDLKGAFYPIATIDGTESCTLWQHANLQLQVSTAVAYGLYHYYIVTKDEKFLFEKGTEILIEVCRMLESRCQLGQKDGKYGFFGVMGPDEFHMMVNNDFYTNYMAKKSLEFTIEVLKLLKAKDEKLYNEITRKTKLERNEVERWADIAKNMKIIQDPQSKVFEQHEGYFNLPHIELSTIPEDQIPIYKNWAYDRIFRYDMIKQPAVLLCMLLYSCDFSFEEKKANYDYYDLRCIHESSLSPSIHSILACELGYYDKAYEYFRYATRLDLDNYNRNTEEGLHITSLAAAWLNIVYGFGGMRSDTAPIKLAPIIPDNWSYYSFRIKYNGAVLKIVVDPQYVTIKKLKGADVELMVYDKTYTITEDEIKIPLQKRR

T2 sequence (D6Y6U5 entry or part of it): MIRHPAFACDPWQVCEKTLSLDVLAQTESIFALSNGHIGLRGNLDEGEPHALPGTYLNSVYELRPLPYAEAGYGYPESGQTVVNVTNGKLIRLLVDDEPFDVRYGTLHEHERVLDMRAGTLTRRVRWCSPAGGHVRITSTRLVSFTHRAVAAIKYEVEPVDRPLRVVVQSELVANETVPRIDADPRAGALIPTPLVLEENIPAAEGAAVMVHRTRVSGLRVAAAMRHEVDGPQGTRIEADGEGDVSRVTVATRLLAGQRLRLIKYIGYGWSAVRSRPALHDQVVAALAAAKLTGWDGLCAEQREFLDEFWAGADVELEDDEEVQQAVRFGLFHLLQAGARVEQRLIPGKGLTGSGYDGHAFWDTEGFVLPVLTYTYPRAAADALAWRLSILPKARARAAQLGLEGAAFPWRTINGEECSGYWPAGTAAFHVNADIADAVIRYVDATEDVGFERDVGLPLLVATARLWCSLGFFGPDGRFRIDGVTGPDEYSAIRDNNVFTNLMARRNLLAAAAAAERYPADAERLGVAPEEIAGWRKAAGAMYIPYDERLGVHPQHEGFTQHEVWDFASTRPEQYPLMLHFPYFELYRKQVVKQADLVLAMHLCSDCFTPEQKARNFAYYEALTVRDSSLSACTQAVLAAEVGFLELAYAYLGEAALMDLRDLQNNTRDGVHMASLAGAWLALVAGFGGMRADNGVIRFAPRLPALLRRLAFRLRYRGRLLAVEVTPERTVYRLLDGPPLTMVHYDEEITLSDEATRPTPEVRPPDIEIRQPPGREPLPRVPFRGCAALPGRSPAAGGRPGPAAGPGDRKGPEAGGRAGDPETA
T1 sequence (H1XSN4 entry or part of it): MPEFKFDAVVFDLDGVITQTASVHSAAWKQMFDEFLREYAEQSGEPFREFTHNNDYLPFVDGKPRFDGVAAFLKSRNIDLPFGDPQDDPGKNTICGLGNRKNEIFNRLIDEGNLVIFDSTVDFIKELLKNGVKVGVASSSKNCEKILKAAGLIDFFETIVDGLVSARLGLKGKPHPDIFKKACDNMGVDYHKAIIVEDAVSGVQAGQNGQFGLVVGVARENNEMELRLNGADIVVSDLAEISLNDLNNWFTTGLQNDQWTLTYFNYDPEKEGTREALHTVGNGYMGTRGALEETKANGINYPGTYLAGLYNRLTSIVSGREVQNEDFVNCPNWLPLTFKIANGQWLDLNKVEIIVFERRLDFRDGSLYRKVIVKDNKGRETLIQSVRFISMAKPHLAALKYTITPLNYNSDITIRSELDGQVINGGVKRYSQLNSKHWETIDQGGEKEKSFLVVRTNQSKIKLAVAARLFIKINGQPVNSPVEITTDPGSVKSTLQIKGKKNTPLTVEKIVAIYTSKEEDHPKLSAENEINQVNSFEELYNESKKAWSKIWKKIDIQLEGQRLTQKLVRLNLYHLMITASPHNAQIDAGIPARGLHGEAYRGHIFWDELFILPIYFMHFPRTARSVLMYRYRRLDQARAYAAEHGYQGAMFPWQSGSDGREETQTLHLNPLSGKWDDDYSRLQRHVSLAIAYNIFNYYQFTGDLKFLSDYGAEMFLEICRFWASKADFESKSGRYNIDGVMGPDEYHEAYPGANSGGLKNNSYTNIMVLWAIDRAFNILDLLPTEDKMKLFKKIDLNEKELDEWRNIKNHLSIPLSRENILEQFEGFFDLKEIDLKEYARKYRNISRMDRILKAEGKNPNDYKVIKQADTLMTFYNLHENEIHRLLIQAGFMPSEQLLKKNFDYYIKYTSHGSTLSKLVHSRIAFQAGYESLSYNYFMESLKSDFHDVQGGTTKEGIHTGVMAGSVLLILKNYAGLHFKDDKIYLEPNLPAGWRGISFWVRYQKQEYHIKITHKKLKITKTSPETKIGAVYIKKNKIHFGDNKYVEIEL
T4 sequence (B8D049 whole entry): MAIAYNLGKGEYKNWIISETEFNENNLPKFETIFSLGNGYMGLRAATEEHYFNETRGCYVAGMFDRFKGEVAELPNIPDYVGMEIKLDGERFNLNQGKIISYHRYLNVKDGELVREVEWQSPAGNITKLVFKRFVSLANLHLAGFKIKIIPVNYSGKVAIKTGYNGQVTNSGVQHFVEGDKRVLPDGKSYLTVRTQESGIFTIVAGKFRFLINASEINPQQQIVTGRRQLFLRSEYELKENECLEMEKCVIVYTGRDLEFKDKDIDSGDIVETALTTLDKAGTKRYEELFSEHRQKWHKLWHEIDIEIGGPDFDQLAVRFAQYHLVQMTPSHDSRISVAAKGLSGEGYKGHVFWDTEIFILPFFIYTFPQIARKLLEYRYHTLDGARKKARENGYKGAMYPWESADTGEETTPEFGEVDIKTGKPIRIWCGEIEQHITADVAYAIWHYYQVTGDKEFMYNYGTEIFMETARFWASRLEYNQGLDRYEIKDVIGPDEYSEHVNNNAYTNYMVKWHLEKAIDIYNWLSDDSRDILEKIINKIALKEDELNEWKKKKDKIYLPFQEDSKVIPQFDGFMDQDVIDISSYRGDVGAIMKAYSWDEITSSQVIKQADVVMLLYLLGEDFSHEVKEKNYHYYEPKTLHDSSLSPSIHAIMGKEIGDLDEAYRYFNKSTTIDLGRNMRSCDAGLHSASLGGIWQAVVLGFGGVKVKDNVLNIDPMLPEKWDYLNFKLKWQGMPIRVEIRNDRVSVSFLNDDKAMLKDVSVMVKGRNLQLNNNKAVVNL

## O=P(O)(O)OC[C@H]1OC(O)[C@H](O)[C@@H](O)[C@@H]1O (some centres unmarked) [glucose 6-phosphate]
CaGP; donor βGlc1P
  phosphomolybdate assay and HPAEC-PAD, synthesis direction: trehalose 6-phosphate was produced from βGlc1P and glucose 6-phosphate

## OC[C@H]1OC(O)[C@H](O)[C@@H](O)[C@@H]1O (some centres unmarked) [glucose]
TbGP; donor βGlc1P
  phosphomolybdate assay and HPAEC-PAD, synthesis direction: In a reaction mixture of glucose and βGlc1P, TbGP produced trehalose
MiGP
  phosphomolybdate assay and HPAEC-PAD, synthesis direction: Apart from minor activity on glucose and galactose, MiGP prefers α-glucosidic disaccharides

## OC[C@H]1O[C@H](O[C@H]2C(O)O[C@H](CO)[C@@H](O)[C@@H]2O)[C@H](O)[C@@H](O)[C@@H]1O (some centres unmarked) [kojibiose]
HoGP; phosphorolysis and acceptor with βGlc1P
  phosphomolybdate assay and HPAEC-PAD, synthesis direction: both breaking kojibiose down to glucose and βGlc1P and using it as acceptor

## OC[C@H]1O[C@H](O[C@H]2[C@H](O)[C@@H](CO)OC(O)[C@@H]2O)[C@H](O)[C@@H](O)[C@@H]1O (some centres unmarked) [nigerose]
ChGP
  phosphomolybdate assay and HPAEC-PAD, synthesis direction: ChGP elongated nigerose, and other disaccharides, to form α-1,3-oligoglucans

## O=P(O)(O)O[C@@H]1O[C@H](CO)[C@@H](O)[C@H](O)[C@H]1O [βGlc1P]
CaGP; acceptor glucose 6-phosphate
  phosphomolybdate assay and HPAEC-PAD, synthesis direction: trehalose 6-phosphate was produced from βGlc1P and glucose 6-phosphate
TbGP; acceptor glucose
  phosphomolybdate assay and HPAEC-PAD, synthesis direction: In a reaction mixture of glucose and βGlc1P, TbGP produced trehalose
HoGP; acceptor kojibiose
  phosphomolybdate assay and HPAEC-PAD, synthesis direction: In a reaction mixture that contained both kojibiose and βGlc1P, phosphorolytic and synthetic reactions co-occur
